Laboratory results reported in US9724380B2, “Method and compositions for synchronizing time of insemination in gilts” (JBS UNITED ANIMAL HEALTH II LLC, priority 2012, dated 2017).

How the values were obtained:
Type in all cases: in vivo, swine
gilts [1] = assay: Example 2: estrus observation post-MATRIX; conditions: older gilts at the first site, all treatments
Method: Two hundred ninety-seven (297) gilts were fed MATRIX® as a top-dress for 14 days at the recommended rate of 15 mg/gilt/day. The last feeding of MATRIX® was at 5:30 AM (Day 0). Approximately one hundred gilts were allocated to each of the following treatments: • 1. Group 1, Controls (n=100); MATRIX® treated, but not OvuGel™ treated, inseminated daily during estrus, as is normally practiced (average of 1.9 inseminations per gilt). • 2. Group 2 (n=98); OvuGel™ treated at 6:30 am (+/−1 hr) on Day 5 and inseminated at 2 to 11 hours post-OvuGel™ treatment on Day 5 if expressing estrus. All gilts inseminated once on Day 6, 26 hours (+/−2.5 hrs) post-OvuGel™ treatment, regardless of estrus status. • 3. Group 3 (n=99); OvuGel™ treated at 6:30 am (+/−1 hr) on Day 5 and inseminated once at 2.5 to 9.5 hours post-OvuGel™ treatment on Day 5 and again on Day 6, 26.5 hours (+/−3 hrs) post-OvuGel™ treatment, without regard to estrus on either day.
(§1) Gilts were housed in individual pens. Boars were housed at least 12 m away and downwind. […] To facilitate detection of estrus, a mature boar was walked slowly in the alley in front of the gilt's pen, exposing each gilt to visual, auditory and olfactory signals from the boar for up to 5 minutes. […]

gilts [2] = assay: Example 3: estrus observation post-MATRIX; conditions: younger gilts at the second site, all treatments
Method: Three hundred twelve (312) gilts were fed MATRIX® as a top-dress for 14 days at the recommended rate of 15 mg/gilt/day. The last feeding of MATRIX® was at 6:30 AM (Day 0). One hundred four gilts were allocated to each of the following treatments: • 1. Group 1, Controls (n=104); MATRIX® treated, but not OvuGel™ treated, inseminated daily during estrus, as is normally practiced at the site (average of 1.8 inseminations per gilt). • 2. Group 2 (n=104); OvuGel™ treated at 7:00 am (+/−1.5 hours) on Day 5 and inseminated at 2 to 4 hours post-OvuGel™ treatment on Day 5 if expressing estrus. All gilts inseminated once on Day 6, 26 hours (+/−2 hrs) post-OvuGel™ treatment, regardless of estrus status. • 3. Group 3 (n=104); OvuGel™ treated at 7:00 am (+/−1.5 hours) on Day 5 and inseminated once at 2 to 4 hours post-OvuGel™ treatment on Day 5 and again on Day 6, 26 hours (+/−2 hrs) post-OvuGel™ treatment, without regard to estrus on either day.
as §1

gilts [3] = assay: Example 5: estrus observation after triptorelin gel dose groups; conditions: all treatments (did not differ among treatments)
Method: (§2) All gilts were individually fed MATRIX® as a top-dress for 14 or 15 days at the recommended rate of 15 mg/gilt/day. Gilts were withdrawn from MATRIX® feeding (last top-dress in the morning on Day 0) and allocated to each of the following treatments. Controls were vehicle gel treated (vehicle gel without triptorelin) at 120 (+/−2) hours following MATRIX® withdrawal (last top dress). The other gilts were given 100, 200 or 400 mcg triptorelin as the acetate in a methylcellulose gel formulation 120 (+/−2) hours following MATRIX® withdrawal. The four treatments were: • 1. Vehicle gel (VG): vehicle gel without triptorelin at 120 (+/−2) hours after MATRIX® withdrawal. • 2. TG 100: 100 mcg (2 mL 50 mcg/mL) triptorelin gel at 120 (+/−2) hours after MATRIX® withdrawal. • 3. TG 200: 200 mcg (2 mL 100 mcg/mL) triptorelin gel at 120 (+/−2) hours after MATRIX® withdrawal. • 4. TG 400: 400 mcg (2 mL 200 mcg/mL) triptorelin gel at 120 (+/−2) hours after MATRIX® withdrawal.
(§3) Triptorelin (pGlu-His-Trp-Ser-Tyr-D-Trp-Leu-Arg-Pro-Gly-NH2) was supplied in the acetate form, from Bachem, Torrance, Calif. (Item H-4075 CGMP grade). Triptorelin gel (100-400 mcg/2 mL dose) was formulated by Argenta (Auckland, NZ) in a gel composed of Methocel Premium A4000 (Dow Chemical), citrate buffer (pH 5.5), NaCl, methionine, and methyl and propyl parabens. Fifty-four milliliters of triptorelin gel (100 mcg triptorelin acetate/mL) was packaged in Amber Borosilicate Glass Serum Vials (610206-50) with a Gray Butyl Pharmaceutical Serum Vial Stopper (73828A-SS) with a Standard Aluminum Seal (SAS20NAT). […] MATRIX® was supplied as the US commercially available form.
For post-treatment estrus detection, gilts were housed in individual pens. Boars were housed in separate rooms, and/or at least 12 m away and downwind. To elicit signs of estrus, a mature boar was walked slowly in the alley in front of the gilts' crates, exposing each test gilt to visual, auditory and olfactory signals from the boar for up to 5 minutes. In keeping with standard practice at commercial farms, while the boar was near the front of the gilt's crate, estrus was tested by an experienced person applying back pressure to the midsection of the gilt combined with side rubbing. Estrus was confirmed when a gilt stood rigidly to the back pressure, with no vocalization and with some indication of an ear reflex. Gilts were not exposed to boars during the first three days after withdrawal of MATRIX® (Day 0 to Day 2). Estrus detection was performed daily on all gilts from Day 3 to Day 7.
A single 2 mL dose of triptorelin gel or vehicle gel was deposited within approximately 1-2 cm posterior to the cervix with a catheter similar to those used for artificial insemination. The dose was delivered using a standard multi-dose applicator attached to the catheter. […]

gilts [4] = assay: Example 5: ovulation monitored by transrectal ultrasonography after 100, 200 or 400 mcg triptorelin gel intravaginally at 120 h after MATRIX withdrawal; conditions: all treatments
Method: as §2, §3
Ovulation was monitored twice on Day 5 (8 hours and 16 hours post-treatment) and every 8 hours on Day 6 and Day 7 or until ovulation was confirmed or 176 hours following last MATRIX® feeding. The ovulatory status of all gilts was monitored by transrectal ultrasonography. An Aloka 500 ultrasound machine is used for this purpose, with a 7.5 MHz linear array transducer attached to a fixed-angle PVC stabilizing rod to facilitate insertion into the rectum. The transducer and PVC rod are coated with a gynecological lubricant and gently inserted into the rectum until the ovaries can be visualized, one at a time. The diameters of the three largest follicles were recorded (to the nearest 0.1 mm) at each scanning. A gilt was declared to have ovulated when the number of large follicles (≧6.5 mm) fell to less than 3.
A single 2 mL dose of triptorelin gel or vehicle gel was deposited within approximately 1-2 cm posterior to the cervix with a catheter similar to those used for artificial insemination. The dose was delivered using a standard multi-dose applicator attached to the catheter. A new disposable sheath, which surrounds the catheter, was used for each gilt.

## C=CC[C@]1(O)CC[C@H]2[C@@H]3CCC4=CC(=O)CCC4=C3C=C[C@@]21C [MATRIX®, altrenogest]
Gilts [1]
  gilts that first expressed estrus on Day 5 post-MATRIX, average: 30.1%
Gilts [2]
  gilts that showed estrus on Day 5: 7.4%
Gilts [3]
  interval from last feeding of MATRIX to estrus: 146 ± 22 h
  percentage of gilts which expressed estrus after the last feeding of MATRIX: 97%
Gilts [4]
  gilts ovulated within the experimental period, overall: 94%
